Tests used:
ragweed [1] = assay: Test C postemergence; assay type: in vivo, Ambrosia artemisiifolia; settings: 10 days
In short: (§1)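 Greenhouse herbicide screen, 10-day duration. Test chemicals in solvent/surfactant blend were sprayed onto soil at sowing (pre) or onto 2–10 cm seedlings at one to two leaves (post); injury scored visually against controls, 0 no effect to 100 complete control.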

kochia [2] = assay: Test C postemergence; assay type: in vivo, Bassia scoparia; settings: 10 days
In short: as §1

kochia [3] = assay: Test C preemergence; assay type: in vivo, Bassia scoparia; settings: 0 to 100 scale (0 no effect, 100 complete control)
In short: as §1

sedge, umbrella = assay: Test D flooded paddy test; assay type: in vivo, Cyperus difformis; settings: 250 g ai/ha, applied to paddy water, visual rating after 13 to 14 days, scale 0 to 100 (0 no effect, 100 complete control)
In short: (§2)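 At the 2-leaf stage, floodwater 3 cm deep received the test compound; that depth persisted throughout. Plants scored visually 13 to 14 days on, 0 (no effect) to 100 (complete control), dash indicating no result.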

ryegrass, Italian [4] = assay: Test C postemergence; assay type: in vivo, Lolium multiflorum; settings: 10 days
In short: as §1

wheat [5] = assay: Test C preemergence; assay type: in vivo, Triticum aestivum; settings: 0 to 100 scale (0 no effect, 100 complete control)
In short: as §1

corn [6] = assay: Test C postemergence; assay type: in vivo, Zea mays; settings: 10 days
In short: as §1

galium = assay: Test C postemergence; assay type: in vivo, Galium aparine; settings: 10 days
In short: as §1

pigweed, palmer [7] = assay: Test C preemergence; assay type: in vivo, Amaranthus palmeri; settings: 0 to 100 scale (0 no effect, 100 complete control)
In short: as §1

blackgrass [8] = assay: Test C postemergence; assay type: in vivo, Alopecurus myosuroides; settings: 10 days
In short: as §1

soybean [9] = assay: Test C preemergence; assay type: in vivo, Glycine max; settings: 0 to 100 scale (0 no effect, 100 complete control)
In short: as §1

barnyardgrass [10] = assay: Test D flooded paddy test; assay type: in vivo, Echinochloa crus-galli; settings: 250 g ai/ha, applied to paddy water, visual rating after 13 to 14 days, scale 0 to 100 (0 no effect, 100 complete control)
In short: as §2

corn [11] = assay: Test C preemergence; assay type: in vivo, Zea mays; settings: 0 to 100 scale (0 no effect, 100 complete control)
In short: as §1

pigweed, palmer [12] = assay: Test C postemergence; assay type: in vivo, Amaranthus palmeri; settings: 10 days
In short: as §1

blackgrass [13] = assay: Test C preemergence; assay type: in vivo, Alopecurus myosuroides; settings: 0 to 100 scale (0 no effect, 100 complete control)
In short: as §1

ducksalad = assay: Test D flooded paddy test; assay type: in vivo, Heteranthera limosa; settings: 250 g ai/ha, applied to paddy water, visual rating after 13 to 14 days, scale 0 to 100 (0 no effect, 100 complete control)
In short: as §2

barnyardgrass [14] = assay: Test C preemergence; assay type: in vivo, Echinochloa crusgalli; settings: 0 to 100 scale (0 no effect, 100 complete control)
In short: as §1

wheat [15] = assay: Test C postemergence; assay type: in vivo, Triticum aestivum; settings: 10 days
In short: as §1

barnyardgrass [16] = assay: Test C postemergence; assay type: in vivo, Echinochloa crusgalli; settings: 10 days
In short: as §1

horseweed = assay: Test C postemergence; assay type: in vivo, Erigeron canadensis; settings: 10 days
In short: as §1

green foxtail [17] = assay: Test C postemergence; assay type: in vivo, Setaria viridis; settings: 10 days
In short: as §1

ryegrass, Italian [18] = assay: Test C preemergence; assay type: in vivo, Lolium multiflorum; settings: 0 to 100 scale (0 no effect, 100 complete control)
In short: as §1

oat, wild [19] = assay: Test C preemergence; assay type: in vivo, Avena fatua; settings: 0 to 100 scale (0 no effect, 100 complete control)
In short: as §1

soybean [20] = assay: Test C postemergence; assay type: in vivo, Glycine max; settings: 10 days
In short: as §1

rice = assay: Test D flooded paddy test; assay type: in vivo, Oryza sativa; settings: 250 g ai/ha, applied to paddy water, visual rating after 13 to 14 days, scale 0 to 100 (0 no effect, 100 complete control)
In short: as §2

oat, wild [21] = assay: Test C postemergence; assay type: in vivo, Avena fatua; settings: 10 days
In short: as §1

green foxtail [22] = assay: Test C preemergence; assay type: in vivo, Setaria viridis; settings: 0 to 100 scale (0 no effect, 100 complete control)
In short: as §1

ragweed [23] = assay: Test C preemergence; assay type: in vivo, Ambrosia artemisiifolia; settings: 0 to 100 scale (0 no effect, 100 complete control)
In short: as §1

[24] = 125 g ai/ha, postemergence, 0 to 100 scale, 0 no effect, 100 complete control
[25] = Postemergence, 500 g ai/ha, visual 0 to 100 scale (0 no effect, 100 complete control)
[26] = Preemergence, 500 g ai/ha, visual rating after 10 days
[27] = Test C, preemergence, 125 g ai/ha

## CC(C)c1ncn(-c2cc(OC(F)F)c(OC(F)F)c(C(=O)N3C[C@H](C)Oc4c(Cl)cccc43)c2)n1 [Compound 150]
Ragweed [1]; [24]
  Plant response rating, Ragweed: 0
Ragweed [1]; [25]
  Plant response rating, Ragweed: 0
Kochia [2]; [24]
  Plant response rating, Kochia: 0
Kochia [2]; [25]
  Plant response rating, Kochia: 20
Kochia [3]; [26]
  Plant response rating, Kochia: 0
Kochia [3]; [27]
  Kochia plant response rating: 0
sedge, umbrella
  Plant response rating, Sedge, Umbrella (Flood): 0
ryegrass, Italian [4]; [24]
  Plant response rating, Ryegrass, Italian: 0
ryegrass, Italian [4]; [25]
  Plant response rating, Ryegrass, Italian: 0
Wheat [5]; [26]
  Plant response rating, Wheat: 0
Wheat [5]; [27]
  Wheat plant response rating: 0
Corn [6]; [24]
  Plant response rating, Corn: 0
Corn [6]; [25]
  Plant response rating, Corn: 0
galium; [24]
  Plant response rating, Galium: 0
galium; [25]
  Plant response rating, Galium: 0
pigweed, palmer [7]; [26]
  Plant response rating, Pigweed, Palmer: 0
pigweed, palmer [7]; [27]
  Pigweed, Palmer plant response rating: 0
Blackgrass [8]; [24]
  Plant response rating, Blackgrass: 0
Blackgrass [8]; [25]
  Plant response rating, Blackgrass: 0
Soybean [9]; [26]
  Plant response rating, Soybean: 0
Soybean [9]; [27]
  Soybean plant response rating: 0
Barnyardgrass [10]
  Plant response rating, Barnyardgrass (Flood): 0
Corn [11]; [26]
  Plant response rating, Corn: 0
Corn [11]; [27]
  Corn plant response rating: 0
pigweed, palmer [12]; [24]
  Plant response rating, Pigweed, Palmer: 0
pigweed, palmer [12]; [25]
  Plant response rating, Pigweed, Palmer: 30
Blackgrass [13]; [26]
  Plant response rating, Blackgrass: 0
Blackgrass [13]; [27]
  Blackgrass plant response rating: 0
ducksalad
  Plant response rating, Ducksalad (Flood): 0
Barnyardgrass [14]; 125 g ai/ha, preemergence
  Barnyardgrass plant response rating: 0
Barnyardgrass [14]; [26]
  Plant response rating, Barnyardgrass: 0
Wheat [15]; [24]
  Plant response rating, Wheat: 0
Wheat [15]; [25]
  Plant response rating, Wheat: 0
Barnyardgrass [16]; [24]
  Plant response rating, Barnyardgrass: 10
Barnyardgrass [16]; [25]
  Plant response rating, Barnyardgrass: 10
horseweed; [24]
  Plant response rating, Horseweed: 0
horseweed; [25]
  Plant response rating, Horseweed: 0
Green foxtail [17]; [24]
  Plant response rating, Foxtail, Green: 0
Green foxtail [17]; [25]
  Plant response rating, Foxtail, Green: 0
ryegrass, Italian [18]; [26]
  Plant response rating, Ryegrass, Italian: 0
ryegrass, Italian [18]; [27]
  Ryegrass, Italian plant response rating: 0
oat, wild [19]; [26]
  Plant response rating, Oat, Wild: 0
oat, wild [19]; [27]
  Oat, Wild plant response rating: 0
Soybean [20]; [24]
  Plant response rating, Soybean: 20
Soybean [20]; [25]
  Plant response rating, Soybean: 50
rice
  Plant response rating, Rice (Flood): 0
oat, wild [21]; [24]
  Plant response rating, Oat, Wild: 0
oat, wild [21]; [25]
  Plant response rating, Oat, Wild: 0
Green foxtail [22]; [26]
  Plant response rating, Foxtail, Green: 0
Green foxtail [22]; [27]
  Foxtail, Green plant response rating: 0
Ragweed [23]; [26]
  Plant response rating, Ragweed: 20
Ragweed [23]; [27]
  Ragweed plant response rating: 0

— US20260262643A1, “HERBICIDAL BENZOXAZINES” (FMC CORPORATION, priority 2022, published 2026)
